These results are taken from patent EP4745135A1 (Gluetacs Therapeutics (Shanghai) Co., Ltd., priority 2023, dated 2025).

pIC50: −log10 of the molar value.

Usually pIC50 stands for the IC50 on a negative log10 scale, so that one unit is a factor of ten. A word on the inhibition: it is the drop in the measured response relative to a control, in per cent.

Assay [1] deals with Human T lymphocytic leukemia cell line: Jurkat. As to the kind of experiment: Tumor cell proliferation inhibition (CellTiter-Meiluncell luminescent cell viability assay). The note with it: 96 h, read-out: Inhibitory activity (IC50, nM) on tumor cell proliferation, Jurkat.
Experimental: (§1) The tumor cells used herein were cultured in a cell culture medium listed in table 2 at 37°C in an incubator with 5% CO2. Prior to experimentation, all cell lines used were correctly identified by STR profiling, and tested negative for mycoplasma contamination using a mycoplasma detection kit through routine screenings.
(§2) The IC50 values of the compounds of the present disclosure (including the compounds in Table 1 and Examples) were determined using the CellTiter-Meiluncell Luminescent Cell Viability Assay Kit from Dalian Meilun Biotech Co., Ltd. The detailed procedure is as follows: Tumor cells were seeded in 96-well cell culture plates at the densities specified in Table 3. On the following day, the test compounds of the present disclosure were subjected to serial dilution. The dilution can be performed according to one of the following two methods: • (1) The first dilution method: The test compounds of the present disclosure (including the compounds in Table 1 and Examples) were subjected to 5-fold serial dilutions starting from a highest concentration of 2000 µM, resulting in a total of 9 concentrations from high to low (2000, 400, 80, 16, 3.2, 0.64, 0.128, 0.0256, 0.00512 µM). Subsequently, 0.5 µL of the test compound dilution was transferred into the 96-well plate containing the cells, with each well containing 100 µL of cell culture medium. […] Into the 96-well plate, the diluted test compounds and corresponding detection reagents were added, resulting in final test compound concentrations of 500 nM and 10 nM, respectively. The experimental procedure is described below using the diluted 2 µM test compound as an example.
(§3) 0.5 µL of the aforementioned diluted compound of the present disclosure (including the compounds in Table 1 and Examples) was added to the seeded cells in 100 µL of medium, yielding a final test compound concentration of 10 nM. After the cells were treated with the compounds of the present disclosure for a specified period, the cell viability assay reagent was added to the culture medium according to the kit's instructions to determine cell viability. […] All controls were treated using the same procedure as the compounds of the present disclosure. The growth inhibition curves for the compounds of the present disclosure were plotted using Prism GraphPad software, and the IC50 values were calculated therefrom.
A further assay concerns GSPT1. The assay is described as follows: Western blot, degradation of substrate protein in hPBMCs. The class given is cell-based, Human.
The target of the next assay is T1, IKZF3 (Homo sapiens, UniProt Q96SW2+Q9UKT9).
T1 construct: effects of the compounds of the present disclosure on the expression of target proteins in cells; endogenous in cells; host or cells: human PBMCs (Milecell Biotechnologies)
Described as above. The format is cell-based.

The target in the next assay is T2, WEE1 (Homo sapiens, UniProt P30291+Q96SW2).
T2 construct: effects of the compounds of the present disclosure on the expression of target proteins in cells; endogenous in cells; host or cells: human PBMCs (Milecell Biotechnologies)
The description is as above. The class given is cell-based.

Another assay concerns the target T3, CK1α (Homo sapiens, UniProt P48729+Q96SW2).
T3 construct: effects of the compounds of the present disclosure on the expression of target proteins in cells; endogenous in cells; host or cells: human PBMCs (Milecell Biotechnologies)
The assay is described as above. The format is cell-based.

The next assay deals with T4, IKZF2 (Homo sapiens, UniProt Q96SW2+Q9UKS7).
T4 construct: effects of the compounds of the present disclosure on the expression of target proteins in cells; endogenous in cells; host or cells: human PBMCs (Milecell Biotechnologies)
The assay is described as above. The format is cell-based.

Another assay deals with T5, IKZF1 (Homo sapiens, UniProt Q13422+Q96SW2).
T5 construct: effects of the compounds of the present disclosure on the expression of target proteins in cells; endogenous in cells; host or cells: human PBMCs (Milecell Biotechnologies)
The description is as above. The class given is cell-based.

Assay [2] addresses T6, human Cereblon WT GST-tagged protein (Homo sapiens, UniProt Q96SW2).
T6 construct: purchased CISBIO 64BDCRBNPEH
As to the kind of experiment: CRBN-binding affinity, HTRF (CEREBLON BINDING kit). The note with it: for inhibition at 0.5 µM: read-out: Inhibition Rate at 0.5 µM (%); for inhibition at 2 µM: read-out: Inhibition Rate at 2 µM (%). In general terms: In TR-FRET formats the signal depends on donor and acceptor labels being close together.

The test system of assay [3] is Human multiple myeloma cell (MM.1S). The assay is described as follows: Tumor cell proliferation inhibition (CellTiter-Meiluncell luminescent cell viability assay). Particulars: Homo sapiens, MM1.S, 96 h; for inhibition at 0.01 µM: read-out: Inhibition Rate at 10 nM (%); for inhibition at 0.5 µM: read-out: Inhibition Rate at 500 nM (%).
The test system of assay [4] is Human myeloid monocytic leukemia cell (MV-4-11). The assay is described as above. The note with it: MV4-11, 96 h; for inhibition at 0.01 µM: read-out: Inhibition Rate at 10 nM (%); for inhibition at 0.5 µM: read-out: Inhibition Rate at 500 nM (%).
The test system of assay [5] is Human breast cancer cell (MCF-7). The assay is described as above. Particulars: MCF7, 96 h; for inhibition at 0.5 µM: read-out: Inhibition Rate at 500 nM (%); for inhibition at 0.01 µM: read-out: Inhibition Rate at 10 nM (%).
Assay [6] has as its system Human acute T lymphocytic leukemia cell (Molt4). The assay is described as above. The note with it: MOLT-4, 96 h; for inhibition at 0.01 µM: read-out: Inhibition Rate at 10 nM (%); for inhibition at 0.5 µM: read-out: Inhibition Rate at 500 nM (%).
Assay [7] deals with Human multiple myeloma peripheral blood B lymphocyte cell (RPMI-8226). Described as above. Particulars: RPMI-8226, 96 h; for inhibition at 0.01 µM: read-out: Inhibition Rate at 10 nM (%); for inhibition at 0.5 µM: read-out: Inhibition Rate at 500 nM (%).
Experimental: as §1, §2, §3
[8] abbreviates: Western blot, 24 hours of compound treatment, compounds tested at 50 nM and 500 nM (concentration for the table not stated).
Where [9] appears, read: 24 hours treatment, compounds at 50 nM and 500 nM (concentration behind the class not stated).

T1 sequence (Q9UKT9 whole entry): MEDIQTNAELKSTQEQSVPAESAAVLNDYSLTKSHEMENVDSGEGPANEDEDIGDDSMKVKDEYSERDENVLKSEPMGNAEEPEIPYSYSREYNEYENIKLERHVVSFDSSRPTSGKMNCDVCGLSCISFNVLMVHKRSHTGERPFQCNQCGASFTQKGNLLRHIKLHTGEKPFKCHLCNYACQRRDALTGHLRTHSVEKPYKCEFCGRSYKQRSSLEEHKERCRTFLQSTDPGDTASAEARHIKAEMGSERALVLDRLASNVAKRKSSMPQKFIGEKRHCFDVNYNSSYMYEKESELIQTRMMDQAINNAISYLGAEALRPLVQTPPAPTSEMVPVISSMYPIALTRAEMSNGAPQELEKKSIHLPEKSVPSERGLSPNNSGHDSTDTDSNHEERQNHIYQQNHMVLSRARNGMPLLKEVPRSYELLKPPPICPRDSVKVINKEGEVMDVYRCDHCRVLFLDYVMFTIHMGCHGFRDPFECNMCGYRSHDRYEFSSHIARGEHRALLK
T1 sequence (Q96SW2 whole entry): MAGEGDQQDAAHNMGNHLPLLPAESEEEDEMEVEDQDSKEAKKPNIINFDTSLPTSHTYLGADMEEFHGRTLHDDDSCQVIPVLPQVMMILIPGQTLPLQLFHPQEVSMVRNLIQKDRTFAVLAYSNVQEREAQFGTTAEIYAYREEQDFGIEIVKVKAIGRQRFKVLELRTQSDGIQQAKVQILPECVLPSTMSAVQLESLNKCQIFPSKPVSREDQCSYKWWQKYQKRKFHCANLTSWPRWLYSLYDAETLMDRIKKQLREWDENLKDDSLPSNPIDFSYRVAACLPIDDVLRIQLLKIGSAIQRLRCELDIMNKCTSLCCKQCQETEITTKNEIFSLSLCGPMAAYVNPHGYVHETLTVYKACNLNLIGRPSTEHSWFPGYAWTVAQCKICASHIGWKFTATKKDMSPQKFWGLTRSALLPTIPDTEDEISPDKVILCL
T1 sequence (Q16531 whole entry partner): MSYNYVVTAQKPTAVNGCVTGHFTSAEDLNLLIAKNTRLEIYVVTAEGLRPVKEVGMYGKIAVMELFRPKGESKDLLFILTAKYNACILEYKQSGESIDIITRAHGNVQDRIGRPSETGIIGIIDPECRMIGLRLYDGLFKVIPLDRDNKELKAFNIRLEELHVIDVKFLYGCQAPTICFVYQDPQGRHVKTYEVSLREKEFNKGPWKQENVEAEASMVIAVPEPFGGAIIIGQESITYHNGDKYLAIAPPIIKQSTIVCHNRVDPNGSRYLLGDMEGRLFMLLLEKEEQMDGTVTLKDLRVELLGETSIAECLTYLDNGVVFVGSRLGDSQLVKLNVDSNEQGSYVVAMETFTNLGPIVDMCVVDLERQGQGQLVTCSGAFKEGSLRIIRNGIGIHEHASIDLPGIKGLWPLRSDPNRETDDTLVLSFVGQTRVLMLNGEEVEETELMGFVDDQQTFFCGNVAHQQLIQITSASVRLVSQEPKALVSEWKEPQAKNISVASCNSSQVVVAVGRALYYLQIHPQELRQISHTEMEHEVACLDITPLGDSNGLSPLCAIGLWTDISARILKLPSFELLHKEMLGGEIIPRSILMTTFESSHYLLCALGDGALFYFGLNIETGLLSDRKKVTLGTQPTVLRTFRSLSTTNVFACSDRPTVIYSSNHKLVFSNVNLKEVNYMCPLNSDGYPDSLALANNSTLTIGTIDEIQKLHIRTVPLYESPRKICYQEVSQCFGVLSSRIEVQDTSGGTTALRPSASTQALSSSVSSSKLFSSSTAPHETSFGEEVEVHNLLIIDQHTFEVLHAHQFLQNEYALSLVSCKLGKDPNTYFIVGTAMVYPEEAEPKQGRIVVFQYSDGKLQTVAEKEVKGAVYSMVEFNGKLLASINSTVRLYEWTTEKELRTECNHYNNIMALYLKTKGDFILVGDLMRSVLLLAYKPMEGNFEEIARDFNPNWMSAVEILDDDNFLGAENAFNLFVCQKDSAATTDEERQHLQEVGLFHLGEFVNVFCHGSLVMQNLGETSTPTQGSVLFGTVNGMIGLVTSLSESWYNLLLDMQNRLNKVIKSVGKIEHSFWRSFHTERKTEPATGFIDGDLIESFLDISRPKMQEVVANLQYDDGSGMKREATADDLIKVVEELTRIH
T3 sequence (P48729 whole entry): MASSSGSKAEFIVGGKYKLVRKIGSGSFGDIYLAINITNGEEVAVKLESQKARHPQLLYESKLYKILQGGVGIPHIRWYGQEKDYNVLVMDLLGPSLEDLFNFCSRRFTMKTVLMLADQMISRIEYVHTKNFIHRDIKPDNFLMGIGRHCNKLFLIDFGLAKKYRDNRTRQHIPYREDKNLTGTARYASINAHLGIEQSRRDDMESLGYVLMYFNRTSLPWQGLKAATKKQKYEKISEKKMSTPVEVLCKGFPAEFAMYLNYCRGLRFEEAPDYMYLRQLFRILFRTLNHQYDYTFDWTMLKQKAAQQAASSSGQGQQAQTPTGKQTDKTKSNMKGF
T3 sequence (Q96SW2 whole entry): as the sequence (Q96SW2 whole entry) above
T3 sequence (Q16531 whole entry partner): as the sequence (Q16531 whole entry partner) above
T4 sequence (Q9UKS7 whole entry): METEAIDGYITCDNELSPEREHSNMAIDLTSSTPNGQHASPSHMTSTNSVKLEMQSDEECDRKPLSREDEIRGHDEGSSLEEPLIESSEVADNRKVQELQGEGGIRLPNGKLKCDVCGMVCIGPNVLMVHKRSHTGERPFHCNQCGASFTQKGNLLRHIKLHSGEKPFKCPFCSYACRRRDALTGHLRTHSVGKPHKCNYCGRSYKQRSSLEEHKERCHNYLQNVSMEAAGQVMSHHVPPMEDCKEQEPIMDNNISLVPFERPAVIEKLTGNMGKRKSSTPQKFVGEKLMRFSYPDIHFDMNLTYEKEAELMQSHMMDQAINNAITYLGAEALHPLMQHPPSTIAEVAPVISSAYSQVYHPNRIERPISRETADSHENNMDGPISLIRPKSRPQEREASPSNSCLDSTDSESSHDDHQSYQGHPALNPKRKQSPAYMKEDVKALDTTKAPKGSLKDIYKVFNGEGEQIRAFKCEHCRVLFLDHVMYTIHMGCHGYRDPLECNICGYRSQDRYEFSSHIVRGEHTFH
T4 sequence (Q96SW2 whole entry): as the sequence (Q96SW2 whole entry) above
T4 sequence (Q16531 whole entry partner): as the sequence (Q16531 whole entry partner) above
T2 sequence (P30291 whole entry): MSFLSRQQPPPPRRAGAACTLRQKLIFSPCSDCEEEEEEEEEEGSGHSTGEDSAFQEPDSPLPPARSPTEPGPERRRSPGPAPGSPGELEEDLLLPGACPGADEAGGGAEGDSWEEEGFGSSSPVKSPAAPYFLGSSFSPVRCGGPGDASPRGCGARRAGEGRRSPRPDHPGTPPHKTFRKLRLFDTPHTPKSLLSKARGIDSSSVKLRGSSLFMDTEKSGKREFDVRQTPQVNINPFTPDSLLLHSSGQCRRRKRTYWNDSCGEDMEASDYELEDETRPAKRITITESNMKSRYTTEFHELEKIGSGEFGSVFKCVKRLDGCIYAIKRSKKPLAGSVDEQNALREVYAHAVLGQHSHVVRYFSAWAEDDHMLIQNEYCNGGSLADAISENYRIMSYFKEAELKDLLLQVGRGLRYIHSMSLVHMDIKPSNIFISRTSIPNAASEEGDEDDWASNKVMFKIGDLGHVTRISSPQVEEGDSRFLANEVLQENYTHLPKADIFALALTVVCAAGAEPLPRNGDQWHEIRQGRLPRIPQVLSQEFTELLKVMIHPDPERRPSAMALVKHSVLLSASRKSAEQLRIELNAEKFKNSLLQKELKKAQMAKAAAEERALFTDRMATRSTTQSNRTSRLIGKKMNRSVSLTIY
T2 sequence (Q96SW2 whole entry): as the sequence (Q96SW2 whole entry) above
T2 sequence (Q16531 whole entry partner): as the sequence (Q16531 whole entry partner) above
T5 sequence (Q13422 whole entry): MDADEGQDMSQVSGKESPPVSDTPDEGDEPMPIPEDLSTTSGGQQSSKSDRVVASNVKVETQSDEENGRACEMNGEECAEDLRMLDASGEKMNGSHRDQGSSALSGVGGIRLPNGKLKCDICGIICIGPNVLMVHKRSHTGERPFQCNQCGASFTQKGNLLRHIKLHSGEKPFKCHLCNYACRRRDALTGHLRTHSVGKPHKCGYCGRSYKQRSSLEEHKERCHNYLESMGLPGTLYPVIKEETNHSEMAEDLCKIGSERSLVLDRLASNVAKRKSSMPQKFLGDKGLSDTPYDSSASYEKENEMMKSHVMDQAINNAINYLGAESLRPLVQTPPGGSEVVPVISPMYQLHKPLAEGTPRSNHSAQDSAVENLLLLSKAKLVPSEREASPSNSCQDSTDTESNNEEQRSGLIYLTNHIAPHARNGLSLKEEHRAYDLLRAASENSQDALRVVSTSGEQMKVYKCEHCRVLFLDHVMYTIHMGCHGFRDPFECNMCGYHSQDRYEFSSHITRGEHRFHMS
T5 sequence (Q96SW2 whole entry): as the sequence (Q96SW2 whole entry) above
T5 sequence (Q16531 whole entry partner): as the sequence (Q16531 whole entry partner) above
T6 sequence (Q96SW2 whole entry): as the sequence (Q96SW2 whole entry) above

Regarding `O=C1CCC(N2Cc3cc(CN4CCN(c5cccc(Cl)c5Cl)CC4)ccc3C2=S)C(=O)N1` (stereo not drawn) [GT-04474, 3-(5-((4-(2,3-dichlorophenyl)piperazin-1-yl)methyl)-1-thioxoisoindolin-2-yl)piperidine-2,6-dione], the IC50 in assay [1] lay in the range of 50 to 100 nM. In the assay on GSPT1 (setting [8]), the “GSPT1 substrate protein remaining %” value is given as “A (0% ≤ substrate protein remaining % ≤ 80%)”. On IKZF3 (setting [8]), the “IKZF3 substrate protein remaining %” value is “A (0% ≤ substrate protein remaining % ≤ 80%)”. The “Wee1 substrate protein remaining %” value at WEE1 (setting [8]) was “A (0% ≤ substrate protein remaining % ≤ 80%)”. In addition, on CK1α (setting [8]), the “CK1α substrate protein remaining %” value is given as “B (80%< substrate protein remaining %≤ 100%)”. Moreover, the “IKZF2 substrate protein remaining %” value at IKZF2 (setting [8]) was “A (0% ≤ substrate protein remaining % ≤ 80%)”. Also, the “IKZF 1 substrate protein remaining %” value on IKZF1 (setting [8]) is “A (0% ≤ substrate protein remaining % ≤ 80%)”. Besides, the pIC50 in assay [2] (CRBN binding, HTRF, 3 hours at room temperature, read-out: HTRF IC50) was 6.00 to 6.30.

As for `O=C1CCC(N2Cc3cc(CN4CC=C(c5cncc(Cl)c5Cl)CC4)ccc3C2=S)C(=O)N1` (stereo not drawn) [GT-08489, 3-(5-((4,5-dichloro-3',6'-dihydro-[3,4'-bipyridin]-1'(2'H)-yl)methyl)-1-thioxoisoindolin-2-yl)piperidine-2,6-dione], the inhibition at 0.01 µM lay in the range of 10 to 20% in assay [3], 30 to 40% in assay [4], 0 to 5% in assay [6] and 0 to 5% in assay [7]. Further, the inhibition at 0.5 µM in assay [3] was 80 to 100%; in assay [4], 80 to 100%; in assay [5] it was 50 to 60%; in assay [6] it was 80 to 100%; in [7] it was 70 to 80%; in assay [2], 60 to 80%. Moreover, the “GSPT1 substrate protein remaining %” value with GSPT1 (setting [8]) is “A (0% ≤ substrate protein remaining % ≤ 80%)”. Moreover, the “IKZF3 substrate protein remaining %” value at IKZF3 (setting [8]) is “A (0% ≤ substrate protein remaining % ≤ 80%)”. Also, the “Wee1 substrate protein remaining %” value at WEE1 (setting [8]) is reported as “A (0% ≤ substrate protein remaining % ≤ 80%)”. In addition, the “CK1α substrate protein remaining %” value at CK1α (setting [8]) is recorded as “B (80%< substrate protein remaining %≤ 100%)”. Further, the “IKZF2 substrate protein remaining %” value at IKZF2 (setting [8]) is “A (0% ≤ substrate protein remaining % ≤ 80%)”. Besides, the “IKZF 1 substrate protein remaining %” value at IKZF1 (setting [8]) was “B (80%< substrate protein remaining %≤ 100%)”. Besides, the inhibition at 2 µM in assay [2] was 80 to 100%.

For the compound `O=C1CCC(N2Cc3cc(CN4CC=C(c5cncc(Cl)c5)CC4)ccc3C2=S)C(=O)N1` (stereo not drawn) [GT-08490, 3-(5-((5-chloro-3',6'-dihydro-[3,4'-bipyridin]-1'(2'H)-yl)methyl)-1-thioxoisoindolin-2-yl)piperidine-2,6-dione], the inhibition at 0.01 µM in [3] was 50 to 60%; in assay [4], 40 to 60%; in assay [5], 30 to 40%; in [6] it was 0 to 5%; in assay [7] it was 20 to 30%. Also, the inhibition at 0.5 µM lay in the range of 80 to 100% in assay [3]; 80 to 100% in [4]; 50 to 60% in assay [5]; 80 to 100% in assay [6]; 70 to 80% in assay [7]; 60 to 80% in assay [2]. Moreover, the “GSPT1 substrate protein remaining %” value in the assay with GSPT1 (setting [8]) is “A (0% ≤ substrate protein remaining % ≤ 80%)”. Also, the “IKZF3 substrate protein remaining %” value on IKZF3 (setting [8]) is listed as “A (0% ≤ substrate protein remaining % ≤ 80%)”. In addition, the “Wee1 substrate protein remaining %” value on WEE1 (setting [8]) was “A (0% ≤ substrate protein remaining % ≤ 80%)”. Besides, the “CK1α substrate protein remaining %” value at CK1α (setting [8]) is listed as “B (80%< substrate protein remaining %≤ 100%)”. Moreover, the “IKZF2 substrate protein remaining %” value at IKZF2 (setting [8]) is on record as “A (0% ≤ substrate protein remaining % ≤ 80%)”. The “IKZF 1 substrate protein remaining %” value at IKZF1 (setting [8]) is “B (80%< substrate protein remaining %≤ 100%)”. Also, the inhibition at 2 µM in assay [2] was in the range of 80 to 100%.

With `O=C1CCC(N2Cc3cc(CN4CC=C(c5ncccc5F)CC4)ccc3C2=S)C(=O)N1` (stereo not drawn) [GT-08491, 3-(5-((3-fluoro-3',6'-dihydro-[2,4'-bipyridin]-1'(2'H)-yl)methyl)-1-thioxoisoindolin-2-yl)piperidine-2,6-dione], the inhibition at 0.01 µM in [3] is 10 to 20%; in assay [4] it was 18 to 25%; in [6], 20 to 30%; in assay [7], 10 to 20%. The inhibition at 0.5 µM was in the range of 80 to 100% in assay [3]; 80 to 100% in [4]; 40 to 50% in assay [5]; 80 to 100% in [6]; 70 to 80% in assay [7]; 80 to 100% in assay [2]. Also, the “GSPT1 substrate protein remaining %” value in the assay on GSPT1 (setting [8]) was “A (0% ≤ substrate protein remaining % ≤ 80%)”. In addition, the “IKZF3 substrate protein remaining %” value at IKZF3 (setting [8]) is listed as “B (80%< substrate protein remaining %≤ 100%)”. Also, the “Wee1 substrate protein remaining %” value on WEE1 (setting [8]) was “A (0% ≤ substrate protein remaining % ≤ 80%)”. The “CK1α substrate protein remaining %” value at CK1α (setting [8]) is given as “B (80%< substrate protein remaining %≤ 100%)”. Further, the “IKZF2 substrate protein remaining %” value on IKZF2 (setting [8]) is reported as “B (80%< substrate protein remaining %≤ 100%)”. Moreover, the “IKZF 1 substrate protein remaining %” value on IKZF1 (setting [8]) is reported as “B (80%< substrate protein remaining %≤ 100%)”. In addition, the inhibition at 2 µM in [2] was in the range of 80 to 100%.

`O=C1CCC(N2Cc3cc(CN4CC=C(c5n[nH]c6cc(F)ccc56)CC4)ccc3C2=S)C(=O)N1` (stereo not drawn) [GT-09270, 3-(5-((4-(6-fluoro-1H-indazol-3-yl)-3,6-dihydropyridin-1(2H)-yl)methyl)-1-thioxoisoindolin-2-yl)piperidine-2,6-dione]: the inhibition at 0.01 µM is 50 to 60% in assay [3]; 80 to 100% in assay [4]; 10 to 20% in assay [5]; 70 to 80% in assay [6]; 20 to 30% in assay [7]. For the same compound, the inhibition at 0.5 µM was 80 to 100% in assay [3]; 80 to 100% in [4]; 70 to 80% in [5]; 80 to 100% in assay [6]; 70 to 80% in assay [7]; 60 to 80% in [2]. Also, the “GSPT1 substrate protein remaining %” value in the assay on GSPT1 (setting [9]) was “B (80%< substrate protein remaining %≤ 100%)”. Besides, the “IKZF3 substrate protein remaining %” value at IKZF3 (setting [9]) is on record as “B (80%< substrate protein remaining %≤ 100%)”. At WEE1 (setting [9]), the “Wee1 substrate protein remaining %” value is given as “A (0% ≤ substrate protein remaining % ≤ 80%)”. At CK1α (setting [9]), the “CK1α substrate protein remaining %” value is listed as “A (0% ≤ substrate protein remaining % ≤ 80%)”. Further, at IKZF2 (setting [9]), the “IKZF2 substrate protein remaining %” value is recorded as “B (80%< substrate protein remaining %≤ 100%)”. At IKZF1 (setting [9]), the “IKZF 1 substrate protein remaining %” value was “A (0% ≤ substrate protein remaining % ≤ 80%)”. Moreover, the inhibition at 2 µM in assay [2] lay within 80 to 100%.

Turning to `O=C1CCC(N2Cc3cc(CN4CC=C(c5cccc6c(F)cccc56)CC4)ccc3C2=S)C(=O)N1` (stereo not drawn) [GT-09276, 3-(5-((4-(5-fluoronaphthalen-1-yl)-3,6-dihydropyridin-1(2H)-yl)methyl)-1-thioxoisoindolin-2-yl)piperidine-2,6-dione], the inhibition at 0.01 µM in assay [3] was 70 to 80%; in assay [4], 80 to 100%; in assay [5], 30 to 40%; in [6] it was 70 to 80%; in assay [7], 20 to 30%. For the same compound, the inhibition at 0.5 µM was in the range of 80 to 100% in [3]; 80 to 100% in assay [4]; 80 to 100% in assay [5]; 70 to 80% in [6]; 70 to 80% in [7]; 40 to 53% in [2]. Besides, in the assay with GSPT1 (setting [9]), the “GSPT1 substrate protein remaining %” value is “A (0% ≤ substrate protein remaining % ≤ 80%)”. Also, the “IKZF3 substrate protein remaining %” value on IKZF3 (setting [9]) was “A (0% ≤ substrate protein remaining % ≤ 80%)”. The “Wee1 substrate protein remaining %” value at WEE1 (setting [9]) is recorded as “A (0% ≤ substrate protein remaining % ≤ 80%)”. For the same compound, the “CK1α substrate protein remaining %” value at CK1α (setting [9]) was “A (0% ≤ substrate protein remaining % ≤ 80%)”. Also, on IKZF2 (setting [9]), the “IKZF2 substrate protein remaining %” value is on record as “A (0% ≤ substrate protein remaining % ≤ 80%)”. In addition, the “IKZF 1 substrate protein remaining %” value on IKZF1 (setting [9]) was “B (80%< substrate protein remaining %≤ 100%)”. The inhibition at 2 µM in assay [2] was in the range of 80 to 100%.
